Experimental data: patent US7034005B2, “Use of agent for suppressing infection and proliferation of human immunodeficiency syndrome virus” (The Kitasato Institute, priority 2002, dated 2006)

Experiments:
[1] = system: HIV-1BAL strain in M type macrophage (M-MΦ) derived from human monocytes; assay: Proliferation of HIV-1 in M-MΦ: p24 protein in culture supernatant by sandwich ELISA; type: cell-based
Description: (§1) Macrophages derived from monocytes were prepared by culturing the recovered monocytes in the presence of M-CSF (macrophage colony-stimulating factor) (10^4 U/ml, provided by Morinaga Milk Co.), granulocytes and granulocyte-macrophage colony-stimulating factor, GM-CSF) (500 U/ml, provided by Japan Scheling Plough Co., Osaka, or purchased from R & S Genzyme-TECHNE Inc.) with RPMI1640 medium added with FCS10% (Nissui Seiyaku Co., Tokyo) for 7–8 days.
(§2) The macrophage prepared by differential induction of M-CSF from human monocytes is designated as M type macrophage (M type MΦ or M-MΦ) and the macrophage prepared by differential induction of GM-CSF from human monocytes is designated as GM type macrophage (GM type MΦ or GM-MΦ) Further, alveolar macrophage (alveolar MΦ or A-MΦ) was prepared as follows. Cells in the alveolar lavage liquid obtained from the alveolar lavage of healthy volunteers were recovered, suspended and adhered to plastics, then the non-adhered cells were washed out and the remained adhered cells were designated as the alveolar MΦ.
(§3) Infection of HIV-1 to macrophage was performed as follows. Macrophage directed viral strains, HIV-1JR-FL and HIV-1BAL, were infected for 2 hours in contact with M-MΦ, GM-MΦ and A-MΦ (adjusted to 2.5×10^5/well, Flacon No3043: Becton Dickinson Labware, Inc. U.S.)at low concentration (p24 antigen titer 50 ng/ml, TCID50=3000/ml virus to final concentration at 100 pg/ml), and non-adsorbed virus to the macrophage was washed out, and cultured with adding fresh medium. In case of the medium with M-MΦ, M-CSF was added (10^4 U/ml), and that of the medium with GM-MΦ, GM-CSF was added (500 U/ml).
(§4) Proliferation of virus was examined with the released viral particles in the culture supernatant after the infection by the sandwich ELISA using two types of anti-p24 antibody (Nu24 and 10B5^13). The following JAM62 and JAM65 were used as LTR (HIV long terminal repeat)-gap gene primer. The following JAM63 and JAM 64 were used as the internal primer for the nested PCR. • JAM62: • 5′-[…]-3′ (SEQ ID NO: 1) • JAM65: • 5′-[…]-3′ (SEQ ID NO: 2) • JAM63: • 5′-GTGTOACTCTGGTAACTAGAGATCC-3′ (SEQ ID NO: 3) • JAM64: • 5′-[…]-3′ (SEQ ID NO: 4) (1-4) Assay of Expression of Tyrosine Kinase Hck Protein and Transcription Factor C/EBPβ Protein
(§5) In order to show growth suppression effect of the present invention, among macrolide derivatives, EM, EM201, EM202, EM703, CAM, EM722, EM730, EM732, EM736, EM734, EM735, EM747, EM748, EM743, EM746, EM750 or EM751 was dissolved in DMSO with each 100 mM concentration, and used in dilution with the medium thereafter. A control group was M-MΦ treated only with DMSO used for dissolving macrolide derivatives.
(§6) M-MΦ and GM-M Φ were subjected to contact infection with HIV-1BAL strain for 2 hours, added 30 μM of EM, EM201, EM202, EM703, CAM,EM722, EM730, EM732, EM736, EM734, EM735, EM747, EM748, EM743, EM746, EM750 or EM751, incubated for 14 days and amount of p24 protein in the cultured supernatant was assayed in the time-dependent manner.

[2] = system: HIV-1BAL strain in GM type macrophage (GM-MΦ) derived from human monocytes; assay: Proliferation of HIV-1 in GM-MΦ: p24 protein in culture supernatant by sandwich ELISA; type: cell-based
Description: as §1, §2, §3, §4, §5, §6

[3] = system: HIV-1BAL strain infected M-MΦ; assay: Cytopathy (MGC formation) of HIV-1 infected M-MΦ; type: cell-based, human; conditions: 30 μM, HIV-1BAL (FIG. 17)
Description: Formation of cell cluster and cell fusion was observed from the 2nd day of the incubation only in virus producing M-MΦ and formation of multinucleatic giant cells were recognized from the culture day 4–7 [refer to FIG. 2(A)]. On the other hand, in GM-MΦ without generation of virus, nomorphological changes were observed [refer to FIG. 2(B)].
M-MΦ was subjected to contact infection with HIV-1BAL strain for 2 hours, added 30 μM of EM, EM201, EM202, EM703 or CAM, incubated and observed the cell morphology.

[4] = system: tyrosine kinase Hck protein; assay: Expression of tyrosine kinase Hck protein in M-MΦ by Western blotting; type: cell-based, human; conditions: 30 μM, day 2 after HIV-1BAL infection, compared with DMSO control (FIG. 18)
From the text: (§7) Expression of tyrosine kinase Hck protein and transcription factor C/EBPβ protein in macrophage was examined after solubilizing the macrophage in SDS-PAGE sample buffer, performing 10% SDS-polyacrylamide electrophoresis, transferring the protein on the gel to immobilon P membrane (Millipore Inc. U.S.) and checking antibodies against these proteins by Western blotting. Antibody to tyrosine kinase Hck protein (N-30) and antibody to C/EBPβ (C-19) were purchased from Santacluse Inc. (U.S.). Western blotting was detected by Amersham ELC Regent (Amersham International plc, Buckinghamshire, UK). Strength of bands was expressed by PSL (photostimulating luminescence) value (A/mm^2).
(§8) These probes were dissolved in the serum free RPMI1640 medium, in which lipofectin (Life Technology Inc., U.S.) was dissolved at 5 μM concentration, at room temperature for 30 minutes, added with RPMI1640 medium, which contains 10% FCS, to the macrophage (final concentration 2 μM) and incubated at 37° C. for 24 hours. Thereafter, cells were washed with the medium, added the RPMI1640 medium containing 10% FCS without oligonucleotide, further cultured for 24 hours, and then infected with HIV-1.
Consequently, M-MΦ was subjected to contact infection with HIV-1BAL strain for 2 hours, added 30 μM of EM, EM201, EM202, EM703 or CAM, incubated and expression of tyrosine kinase Hck protein was observed on day 2 after the infection by Western blotting.

p38MAPK = assay: Tyrosine phosphorylation (activation) of p38MAPK in HIV-1 infected M-MΦ by Western blotting; type: cell-based, human; conditions: 30 μM, day 2 of culture, HIV-1BAL infected M-MΦ, compared with DMSO (FIG. 19(A))
Description: (§9) P38MAPK and ERK1/2 activation were determined using P38MAPK antibody, anti-ERK1/2 antibody, anti-tyrosine phosphorylation P38MAPK antibody and anti-tyrosine phosphorylation ERK1/2 antibody (New England Biolabs, Inc. U.S.), and phosphorylation reaction of these molecules was determined by Western blotting.
Thirty μM of EM, EM201, EM202, EM703 or CAM were added to M-MΦ infected with HIV-1BAL strain, tyrosine phosphorylation of p38MAPK was detected on day 2 of the culture by Western blotting. […] In any groups, total amount of p38MAPK (total sum of phosphorylated and non-phosphorylated p38MARK) was equal.

ERK1/2 = assay: Tyrosine phosphorylation (activation) of ERK1/2 in HIV-1 infected M-MΦ by Western blotting; type: cell-based, human; conditions: 30 μM, HIV-1BAL infected M-MΦ, compared with DMSO (FIG. 19(B))
Description: as §9
In any groups, total amount of ERK1/2 (total sum of phosphorylated and non-phosphorylated p38MARK) was equal [refer to FIG. 19(B)].

[5] = system: transcription factor C/EBPβ protein; assay: Expression of C/EBPβ protein in GM-MΦ by Western blotting; type: cell-based, human; conditions: oligonucleotide treated GM-MΦ (FIG. 11)
From the text: as §7, §8

Compound	suppression of viral generation (p24 in culture supernatant) in M-MΦ ([1]; 30 μM, HIV-1BAL, 14 days of culture, compared with DMSO control (FIG. 13))	viral proliferation at 300 μM in M-MΦ ([1]; 300 μM, also observed in DMSO control, ascribed to cytotoxicity of DMSO)	concentration dependence of suppressive action on HIV-1BAL in M-MΦ ([1]; various concentrations (FIG. 16))	viral generation in GM-MΦ ([2]; 30 μM, HIV-1BAL, all assay points up to 14 days, similar to DMSO control (FIG. 14))	cytopathic effect (MGC formation) in HIV-1 infected M-MΦ [3]	expression of tyrosine kinase Hck protein in HIV-1 infected M-MΦ [4]	tyrosine phosphorylation of p38MAPK (p38MAPK)	tyrosine phosphorylation of ERK1/2 (ERK1/2)	HIV-1 growth promotion (p24 in culture supernatant) in oligonucleotide pretreated GM-MΦ ([2]; HIV-1 infection after pretreatment (FIG. 12))	changes in expression of C/EBPβ in GM-MΦ [5]
CC[C@H]1OC(=O)[C@H](C)[C@@H](O[C@H]2C[C@@](C)(OC)[C@@H](O)[C@H](C)O2)[C@H](C)[C@@H](O[C@@H]2O[C@H](C)C[C@H](N(C)C)[C@H]2O)[C@](C)(OC)C[C@@H](C)C(=O)[C@H](C)[C@@H](O)[C@]1(C)O [CAM, Oxacyclotetradecane-2,10-dione,4-[(2,6-dideoxy-3-O-methyl-α-L-ribo-hexopyranosyl)oxy]-14-ethyl-12,13-dihydroxy-7-methoxy-3,5,7,9,11,13-hexamethyl-6-[[3,4,6-trideoxy-3-(dimethylamino)-β-D-xylo-hexopyranosyl]oxy], reference compound]	approximately ½	viral proliferation at 300 μM was observed	exhibited suppression of viral production depending upon drug concentration	almost no viral generation was recognized	formation of MGC was slightly recognized	the suppression of tyrosine kinase Hck protein was observed, though not so strong	recognized to decrease, though not so strong	weakly recognized as same in the control group	–	–
C/EBPβ-S: Phosphorothioate-modified sense oligonucleotide probe of C/EBPβ, 5′-CCGCGTTCATOCAACOCCTG-3′ (SEQ ID NO: 9) (sense CCGCGTTCATGCAACGCCTG; all phosphorothioate, sugars by position and methylation of C not given here) [reference compound]	–	–	–	–	–	–	–	–	not recognized	not recognized
